Experimental data reported in patent US10851083B2, “Benzoimidazoles as prolyl hydroxylase inhibitors” (Janssen Pharmaceutica NV, priority 2008, dated 2020).

Legend:
[1] = tested on: Hep-3B cells; experiment: Cellular assay: EPO secretion in Hep-3B cells; assay type: cell-based, human; design: EPO secretion, % of control compound: dose or concentration left out as unconfirmed; conditions: Homo sapiens, Hep3B, 24 h, EPO secretion as percentage of control compound 7-[(4-Chloro-phenyl)-(5-methyl-isoxazol-3-ylamino)-methyl]-quinolin-8-ol, read-out: Cellular % EPO Stimulation
[2] = target: human PHD2181-417 (Homo sapiens (Human), UniProt Q9GZT9); experiment: PHD2 enzyme activity assay ([14C]-succinic acid production); assay type: biochemical; conditions: PHD2181-417 polypeptide, HIF-1α peptide 10 μM, [5-14C]-2-oxoglutaric acid; 30 min pre-incubation; tested 10 μM to 3 nM;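 also: reaction ran 10 min with compound in Tris pH 7.5 buffer with catalase, DTT and ascorbate, labelled succinate freed of leftover 2-oxoglutarate by DNP precipitation, then beta counted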
Sequence of human PHD2181-417 (Q9GZT9 181-417): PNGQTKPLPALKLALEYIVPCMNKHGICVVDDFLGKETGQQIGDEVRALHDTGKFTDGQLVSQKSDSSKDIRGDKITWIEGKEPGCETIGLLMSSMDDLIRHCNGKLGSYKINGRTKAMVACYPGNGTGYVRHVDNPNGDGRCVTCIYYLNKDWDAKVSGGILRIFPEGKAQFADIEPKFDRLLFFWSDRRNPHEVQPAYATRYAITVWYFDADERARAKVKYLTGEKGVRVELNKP

SMILES | Enzyme pIC50 [2] | EPO secretion, % of control compound [1] [%]
O=C(O)c1cnn(-c2nc3cc(S(=O)(=O)CCc4ccccc4)c(Cl)cc3[nH]2)c1 [Example 94, 1-[6-Chloro-5-(2-phenyl-ethanesulfonyl)-1H-benzoimidazol-2-yl]-1H-pyrazole-4-carboxylic Acid] | 7.4 | 65.1
CCS(=O)(=O)c1cc2[nH]c(-n3cc(C(=O)O)cn3)nc2cc1Cl [Example 96, 1-(5-Chloro-6-ethanesulfonyl-1H-benzoimidazol-2-yl)-1H-pyrazole-4-carboxylic Acid] | 7.4 | 67
CS(=O)(=O)c1cc2[nH]c(-n3cc(C(=O)O)cn3)nc2cc1C(F)(F)F [Example 97, 1-(6-Methanesulfonyl-5-trifluoromethyl-1H-benzoimidazol-2-yl)-1H-pyrazole-4-carboxylic Acid] | 7.6 | 75.9
CS(=O)(=O)c1cc2[nH]c(-n3cc(C(=O)O)cn3)nc2cc1OC(F)(F)F [Example 100, 1-(6-Methanesulfonyl-5-trifluoromethoxy-1H-benzoimidazol-2-yl)-1H-pyrazole-4-carboxylic Acid] | 7.5 | 50.2
CC(C)S(=O)(=O)c1cc2[nH]c(-n3cc(C(=O)O)cn3)nc2cc1Cl [Example 101, 1-[5-Chloro-6-(propane-2-sulfonyl)-1H-benzoimidazol-2-yl]-1H-pyrazole-4-carboxylic Acid] | 7.3 | 62.2
CCCS(=O)(=O)c1cc2[nH]c(-n3cc(C(=O)O)cn3)nc2cc1OC(F)(F)F [Example 106, 1-[6-(Propane-1-sulfonyl)-5-trifluoromethoxy-1H-benzoimidazol-2-yl]-1H-pyrazole-4-carboxylic Acid] | 7.5 | 124
O=C(O)c1cnn(-c2nc3cc([S+]([O-])c4ccc(Cl)cc4)c(Cl)cc3[nH]2)c1 (stereo not shown) [Example 107] | 7.2 | 47.6
C[S+]([O-])c1cc2[nH]c(-n3cc(C(=O)O)cn3)nc2cc1C(F)(F)F (stereo not shown) [Example 108, 1-(6-Methanesulfinyl-5-trifluoromethyl-1H-benzoimidazol-2-yl)-1H-pyrazole-4-carboxylic Acid] | 7.3 | 20.4
O=C(O)c1cnn(-c2nc3c(F)cccc3[nH]2)c1 [Example 110, 1-(4-Fluoro-1H-benzoimidazol-2-yl)-1H-pyrazole-4-carboxylic Acid] | 6.2 | 45.9
O=C(O)c1cnn(-c2nc3c(F)c(F)ccc3[nH]2)c1 [Example 111, 1-(4,5-Difluoro-1H-benzoimidazol-2-yl)-1H-pyrazole-4-carboxylic Acid] | 6.6 | 32.6
O=C(O)c1cnn(-c2nc3cc(OC(F)(F)F)c(Cl)cc3[nH]2)c1 [Example 113, 1-(6-Chloro-5-trifluoromethoxy-1H-benzoimidazol-2-yl)-1H-pyrazole-4-carboxylic Acid] | 6.98 | 109
O=C(O)c1cnn(-c2nc3c(ccc4ccccc43)[nH]2)c1 [Example 115, 1-(3H-Naphtho[1,2-d]imidazol-2-yl)-1H-pyrazole-4-carboxylic Acid] | 6.1 | 50
Cc1c(F)ccc2[nH]c(-n3cc(C(=O)O)cn3)nc12 [Example 116, 1-(5-Fluoro-4-methyl-1H-benzoimidazol-2-yl)-1H-pyrazole-4-carboxylic Acid] | 5.8 | 18.3
O=C(O)c1cnn(-c2nc3cc(N4CCCCC4)c(OC(F)(F)F)cc3[nH]2)c1 [Example 117, 1-(5-Piperidin-1-yl-6-trifluoromethoxy-1H-benzoimidazol-2-yl)-1H-pyrazole-4-carboxylic Acid] | 6.5 | 80
O=C(O)c1cnn(-c2nc3cc(C(=O)NN4CCOCC4)ccc3[nH]2)c1 [Example 122, 1-[5-(Morpholin-4-ylcarbamoyl)-1H-benzoimidazol-2-yl]-1H-pyrazole-4-carboxylic Acid] | 6.6 | 5.4
O=C(O)c1cnn(-c2nc3ccc4scnc4c3[nH]2)c1 [Example 125, 1-(8H-Imidazo[4′,5′:3,4]benzo[2,1-d]thiazol-7-yl)-1H-pyrazole-4-carboxylic Acid] | 6 | 46.8
CCNc1cc2nc(-n3cc(C(=O)O)cn3)[nH]c2cc1Cl [Example 130, 1-(6-Chloro-5-ethylamino-1H-benzoimidazol-2-yl)-1H-pyrazole-4-carboxylic Acid] | 6.2 | 48

Second part, led by results:

Enzyme pIC50 [2] | SMILES | EPO secretion, % of control compound [1] [%]
7.5 | O=C(O)c1cnn(-c2nc3cc(S(=O)(=O)Cc4ccc(F)cc4)c(Cl)cc3[nH]2)c1 [Example 92, 1-[6-Chloro-5-(4-fluoro-phenylmethanesulfonyl)-1H-benzoimidazol-2-yl]-1H-pyrazole-4-carboxylic Acid] | 61.2
7.5 | O=C(O)c1cnn(-c2nc3cc(S(=O)(=O)Cc4ccccc4Cl)c(Cl)cc3[nH]2)c1 [Example 93, 1-[6-Chloro-5-(2-chloro-phenylmethanesulfonyl)-1H-benzoimidazol-2-yl]-1H-pyrazole-4-carboxylic Acid] | 78.5
7.2 | CC[S+]([O-])c1cc2[nH]c(-n3cc(C(=O)O)cn3)nc2cc1Cl (stereo not shown) [Example 95, 1-(5-Chloro-6-ethanesulfinyl-1H-benzoimidazol-2-yl)-1H-pyrazole-4-carboxylic Acid] | 46.3
7.3 | CS(=O)(=O)c1cc2[nH]c(-n3cc(C(=O)O)cn3)nc2cc1F [Example 98, 1-(5-Fluoro-6-methanesulfonyl-1H-benzoimidazol-2-yl)-1H-pyrazole-4-carboxylic Acid] | 41.4
7.4 | CS(=O)(=O)c1cc2[nH]c(-n3cc(C(=O)O)cn3)nc2cc1Cl [Example 99, 1-(5-Chloro-6-methanesulfonyl-1H-benzoimidazol-2-yl)-1H-pyrazole-4-carboxylic Acid] | 34.9
7.5 | CCCS(=O)(=O)c1cc2[nH]c(-n3cc(C(=O)O)cn3)nc2cc1Cl [Example 102, 1-[5-Chloro-6-(propane-1-sulfonyl)-1H-benzoimidazol-2-yl]-1H-pyrazole-4-carboxylic Acid] | 54.9
6.7 | O=C(O)c1cnn(-c2nc3cc(F)c(Br)cc3[nH]2)c1 [Example 109, 1-(6-Bromo-5-fluoro-1H-benzoimidazol-2-yl)-1H-pyrazole-4-carboxylic Acid] | 99
6.8 | O=C(O)c1cnn(-c2nc3c(F)cc(F)cc3[nH]2)c1 [Example 112, 1-(4,6-Difluoro-1H-benzoimidazol-2-yl)-1H-pyrazole-4-carboxylic Acid] | 32
6.3 | O=C(O)c1cnn(-c2nc3cc4ccccc4cc3[nH]2)c1 [Example 114, 1-(1H-Naphtho[2,3-d]imidazol-2-yl)-1H-pyrazole-4-carboxylic Acid] | 144
6.8 | O=C(O)c1cnn(-c2nc3cc(F)c(N4CCCCC4)cc3[nH]2)c1 [Example 118, 1-(5-Fluoro-6-piperidin-1-yl-1H-benzoimidazol-2-yl)-1H-pyrazole-4-carboxylic Acid] | 152
6.5 | CCOc1cc2[nH]c(-n3cc(C(=O)O)cn3)nc2cc1F [Example 119, 1-(6-Ethoxy-5-fluoro-1H-benzoimidazol-2-yl)-1H-pyrazole-4-carboxylic Acid] | 69
6.9 | O=C(O)c1cnn(-c2nc3cc(C(=O)Nc4ccccc4)ccc3[nH]2)c1 [Example 120, 1-(5-Phenylcarbamoyl-1H-benzoimidazol-2-yl)-1H-pyrazole-4-carboxylic Acid] | 21.1
7.1 | O=C(O)c1cnn(-c2nc3cc(C(=O)NCc4ccccc4)ccc3[nH]2)c1 [Example 121, 1-(5-Benzylcarbamoyl-1H-benzoimidazol-2-yl)-1H-pyrazole-4-carboxylic Acid] | 18.5
6.3 | O=C(O)c1cnn(-c2nc3cc(COCc4ccccc4)ccc3[nH]2)c1 [Example 123, 1-(5-Benzyloxymethyl-1H-benzoimidazol-2-yl)-1H-pyrazole-4-carboxylic Acid] | 61.1
6.3 | O=C(O)c1cnn(-c2nc3c(Br)cc(F)cc3[nH]2)c1 [Example 124, 1-(4-Bromo-6-fluoro-1H-benzoimidazol-2-yl)-1H-pyrazole-4-carboxylic Acid] | 2.4
7.4 | O=C(O)c1cnn(-c2nc3cc(C(F)(F)F)c(C(F)(F)F)cc3[nH]2)c1 [Example 126, 1-(5,6-Bis-trifluoromethyl-1H-benzoimidazol-2-yl)-1H-pyrazole-4-carboxylic Acid] | 82.7
6.9 | O=C(O)c1cnn(-c2nc3c(Cl)c(Cl)c(Cl)cc3[nH]2)c1 [Example 127, 1-(4,5,6-Trichloro-1H-benzoimidazol-2-yl)-1H-pyrazole-4-carboxylic Acid] | 70.6
7.1 | O=C(O)c1cnn(-c2nc3c(Br)c(Cl)c(Cl)cc3[nH]2)c1 [Example 128, 1-(4-Bromo-5,6-dichloro-1H-benzoimidazol-2-yl)-1H-pyrazole-4-carboxylic Acid] | 24.1
